Source: patent US9848603B2, “Methods for protecting plants with antifungal compositions” (priority 2008, dated 2017)

Columns and labels:
F. graminearum hyphae [1] = format: cell-based, Fusarium graminearum; settings: various concentrations of NaD1
Verticillium dahliae [2] = format: cell-based; settings: read-out: NaD1 IC50
Fov hyphae [3] = assay: Immunogold electron microscopy of NaD1-treated hyphae; format: cell-based, Fusarium oxysporum f. sp. vasinfectum; settings: NaD1 (10 μM) for 2 h
Pseudomonas aeruginosa = assay: Effect of NaD1 on bacterial growth; format: cell-based
Fov hyphae [4] = assay: Detection of reactive oxygen species (DHR123 oxidation) in response to NaD1; settings: NaD1 0.1, 2 and 10 μM or 10 μM NaD1R&A
Leptosphaeria maculans [5] = format: cell-based; settings: read-out: NaD1 IC50
Pichia pastoris = assay: Effect of NaD1 on growth of yeast strains
Protocol: (§1) The effect of NaD1 on the growth of the yeast strains Candida albicans, Pichia pastoris and Saccharomyces cerevisiae (from Department of Microbiology, La Trobe University) was assayed in microtitre plates. Cells were grown in YPD for 48 h, then counted using a haemocytometer and diluted to a concentration of 5×10^4 cells/mL in fresh YPD. Cell suspension (100 μL) containing 0-10 μM NaD1 was added to the wells of a 96-well microtitre plate and incubated for 48 h at 30° C. Growth was determined by measuring the optical density at 595 nm using a microtitre plate reader. Each test was performed in quadruplicate.

Fov hyphae [6] = assay: Uptake of FITC-labeled dextrans into NaD1-treated hyphae
Protocol: The uptake of FITC-labeled dextran with NaD1 treatment of fungal hyphae was also studied. Fov hyphae were grown as described above and incubated with NaD1 (final concentration 0.1, 2, 10 or 50 μM) or an equivalent volume of water for 2 h at RT with gentle agitation. Hyphae were washed twice for 10 min with half-strength PDB to remove excess NaD1 before FITC dextrans of either 4 kDa (FD-4, Sigma-Aldrich) or 10 kDa (FD-10, Sigma-Aldrich) were added to a final concentration of 1 mg/mL. Hyphae were incubated for a further 30 min at RT and then washed twice with half strength PDB to remove excess dextrans. Fluorescence microscopy was used to visualize hyphae as described for SYTOX® green. A second assay was performed under the same conditions except the dextrans were added at the same time as NaD1.

[7] = test system: Fusarium oxysporum f. sp. vasinfectum (Fov); assay: Field trial of transgenic and non-transgenic cotton seed coated with fungicide in Fov infected soil; settings: NaD1 expressed in transgenic line 35.125.1, coated or uncoated
Protocol: Seed of the two lines were either not coated with fungicide or were coated with the fungicide HEC5725 (active ingredient fluoxastrobin, Bayer CropScience, batch number 06529/0022) at a rate of 1 mL/kg of seed, or with the commercial seed coat fungicides Dynasty® (Registered Trademark) (active ingredients 75 g/L azoxystrobin, 37.5 g/L metalaxyl-m, 12.5 g/L fludioxonil, Syngenta) at a rate of 2 mL/kg of seed, Jockey® (Registered Trademark) (active ingredient 167 g/L fluquinconazole, Bayer CropScience) at a rate of 20 mL/kg of seed or Redigo® (Registered Trademark) (active ingredient 100 g/L prothioconazole, Bayer CropScience) at a rate of 1 mL/kg of seed. All seed (coated and uncoated with fungicide) was coated with the insecticide Gaucho® (Registered Trademark) (600 g/L imidacloprid, Bayer CropScience) to control early season thrips and aphids. Seed was prepared to ensure even coating of fungicide and insecticide and allowed to dry prior to sowing.
Plants were grown at a farm in the Darling Downs region of Queensland, Australia. Seed was mechanically planted into soil known to be infected with Fusarium oxysporum f.sp. vasinfectum. […]
Emergence and plant survival were recorded. […] Statistical significance of the interaction of plant line and mortality was calculated using a Pearson's chi-square test.

Fusarium graminearum [8] = assay: microbe, parasite or virus in culture; format: cell-based
Escherichia coli = assay: Effect of NaD1 on bacterial growth; format: cell-based
[9] = test system: Fusarium oxysporum f. sp. vasinfectum (Fov); assay: Glasshouse bioassay of transgenic and non-transgenic cotton seed coated with fungicide in Fov infected soil; settings: transgenic Coker expressing NaD1, seeds not coated with fungicide
Protocol: Cultures of Fov (isolate #24500 VCG 01111) were prepared in millet and incorporated into a soil mix. The infected soil was used to grow line 35.125.1 and non-transgenic Coker 315. The culture of Fov was prepared in ½ strength PDB (12 g/L potato dextrose) and grown for approximately one week at 26° C. The culture (5 to 10 mL) was used to infect autoclaved hulled millet which was then grown for 2 to 3 weeks at room temperature. The infected millet was incorporated into a pasteurized peat based soil mix at 1% (v/v), by vigorous mixing in a 200 L compost tumbler. The infected soil was transferred to plastic containers (10 L of mix per 13.5 L container).
The cotton seed was either non-coated or coated with the fungicide HEC5725 (active ingredient Fluoxastrobin, Bayer Crop Science, batch number 06529/0022) at a rate of 1 mL/kg of seed and allowed to dry prior to sowing. Water was added to facilitate even coating of the seed (62.5 mL/kg of seed). Untreated samples were treated with water only.
Forty eight seeds were planted for each test (transgenic and non-transgenic, coated and non-coated seed). Seed was sown directly into the containers, 12 seed per box in a 3×4 array. […]
Plants were grown for 7 weeks. Foliar symptom development was measured throughout the trial and disease score was determined by destructive sampling at the end of the trial. […]

Leptosphaeria maculans [10] = assay: Fungal glasshouse bioassay of transgenic canola seedlings expressing NaD1; format: in vivo, canola (Brassica napus); settings: NaD1 expressed in transgenic canola line CAT13.26
Aspergillus nidulans = format: cell-based; settings: read-out: NaD1 IC50
Candida albicans = assay: Effect of NaD1 on growth of yeast strains
Protocol: as §1

Fov hyphae [11] = assay: Isolation of NaD1 from treated hyphae (SDS-PAGE and immunoblotting of cytoplasmic contents)
Protocol: Fov hyphae were grown as described above prior to the addition of NaD1 (10 μM final concentration) to 1 mL of the culture. Samples (100 μL) were collected after 0, 5, 10, 30, 60, 90 and 120 min. Hyphae were collected by centrifugation (10 min, 10,000×g) and the supernatant was stored at −20° C. for analysis. Hyphae were washed (2×10 min) with KCl (0.6 M) to remove any ionically bound protein before they were resuspended in 50 mM CAPS buffer (pH 10.0) containing 10 mM DTT for 20 min. Hyphae were collected by centrifugation and the supernatant, containing cell wall proteins, was collected for analysis. The pellet (containing cells) was resuspended in water and the cells were lysed using glass beads (Sigma, 60 mg) and vortexing (3×10 min). Cellular debris was removed by centrifugation (16,000×g, 10 min) and the supernatant collected for analysis. All samples were then analyzed by SDS-PAGE and immunoblotting.

Fov hyphae [12] = assay: Membrane permeabilization of Fov hyphae, SYTOX green uptake; format: cell-based, Fusarium oxysporum f. sp. vasinfectum
filamentous fungi = format: cell-based; settings: Fov, F. graminearum, F. oxysporum f. sp. dianthi and lycopersici, F. solani, F. pseudograminearum, C. heterostrophus, A. brassicola, G. graminis var. tritici, T. basicola, V. dahliae, A. nidulans, S. sclerotiorum, B. cinerea, L. maculans
Fusarium graminearum [13] = format: cell-based; settings: defensin in combination with the triazole tebuconazole
Fov [14] = settings: transgenic cotton variety expressing NaD1, field trials; cited from earlier work
F. graminearum hyphae [15] = format: cell-based, Fusarium graminearum
Thielaviopsis basicola = format: cell-based; settings: read-out: NaD1 IC50
Fov [16] = assay: Effect of metal ions (CaCl2, MgCl2) on NaD1 activity against Fov; settings: NaD1 10 μM; growth of Fov
Protocol: The activity of NaD1 against Fov was examined as described with varying concentrations of CaCl2 (0.1, 0.2, 0.5, 1.0 and 2.0 μM) or MgCl2 (1.0, 2.0, 10, 20 and 50 μM) present in the medium to determine the effects of divalent cations on NaD1 activity.

Bacillus cereus = assay: Effect of NaD1 on bacterial growth; format: cell-based
Saccharomyces cerevisiae = assay: Effect of NaD1 on growth of yeast strains
Protocol: as §1

Staphylococcus aureus = assay: Effect of NaD1 on bacterial growth; format: cell-based
[17] = test system: Fusarium oxysporum f. sp. vasinfectum (Fov); format: cell-based; settings: read-out: NaD1 IC50
[18] = test system: Spodoptera frugiperda (Sf21) insect cells; assay: Effect of NaD1 on growth of insect cells
Protocol: The effect of NaD1 on the growth of Insect cells was determined as follows. Spodoptera frugiperda (Sf21) insect cells were grown to ˜90% confluency in Sf-900 II serum free media (Gibco™, 20 mL) in a 75 cm^2 tissue culture flask with a vented cap (Nunc). Cells were then split one in two with fresh media. Cell suspension was added to 96-well flat-bottomed microtitre plate wells (190 μL/well) and the cells were allowed to settle for 30 min prior to addition of NaD1 (10 μL) to give a final concentration of 0-10 μM. Growth was monitored until the cells reached confluency (˜48 h).

[19] = test system: Fusarium oxysporum f. sp. vasinfectum (Fov); assay: Growth cabinet bioassay of transgenic and non-transgenic cotton seed coated with fungicide in Fov infected soil; settings: transgenic Coker expressing NaD1, seeds not coated with fungicide
Protocol: The assay was conducted as described for the glasshouse assay except for the following modifications.
Thirty seeds were planted for each test (transgenic and non-transgenic, coated and non-coated seed). Seed was sown directly into the containers, 24 seed per box in a 4×6 array. Six seed for each test were sown randomly in each box. Seeds were germinated for 7 days, conditions were 16 hours light at 30° C. and 8 hours dark at 15° C., with a ramp of 2° C. per hour. For the remainder of the experiment the conditions were 16 hours light at 25° C. and 8 hours dark at 10° C. with a ramp of 2° C. per hour.
Plants were grown for 4 weeks. Foliar symptom development was measured throughout the trial and disease score was determined by destructive sampling at the end of the trial. The following rating was used to determine the disease score: 0=no symptoms, 1=vascular browning to base of stem, 2=vascular browning to cotyledons, 3=vascular browning past cotyledons, 4=vascular browning to true leaves, 5=dead. The average disease score was an average for all seeds that germinated.

Verticillium dahliae [20] = assay: Field trial of transgenic and non-transgenic cotton seed coated with fungicide in Verticillium dahliae infected soil; format: in vivo
[21] = read-out: NaD1 IC50, growth inhibition

Protocol for HeLa cells: To examine the effect of NaD1 on mammalian cell growth, HeLa cells were seeded at 50% in Dulbecco's modified Eagle's medium (Gibco™-BRL) containing 10% (v/v) fetal calf serum with or without NaD1 (10 μM) at 37° C. under an atmosphere of 5% CO2 and 95% air in a 60 mm Petri dish. Cells were incubated for 48 h at 37° C. before they were stained with trypan blue to check viability and counted using a haemocytometer.

NaD1: plant defensin isolated from floral tissue of Nicotiana alata; also expressed in transgenic cotton line 35.125.1 and canola line CAT13.26 (RECKTESNTFPGICITKPPCRKACISEKFTDGHCSKILRRCLCTKPC; listed as Nicotiana alata)
SYTOX green uptake (F. graminearum hyphae [1]): increases with increasing concentrations of NaD1 | IC50 (Verticillium dahliae [2]): 750 nM | anti-NaD1 immunogold labeling of cytoplasm of granulated hyphae (Fov hyphae [3]): heavily labeled | effect on growth (Pseudomonas aeruginosa; Gram-negative bacterial strain tested: Pseudomonas aeruginosa): no effect | IC50 (Pseudomonas aeruginosa; growth inhibition, Pseudomonas aeruginosa): > 10000 nM | ROS production (DHR123 oxidation fluorescence) (Fov hyphae [4]): concentration-dependent increase in fluorescence | IC50 (Leptosphaeria maculans [5]): 800 nM | effect on growth (Pichia pastoris): no effect | IC50 (Pichia pastoris; [21]): > 10000 nM | toxicity to cells (HeLa cells; human HeLa cells): not toxic | IC50 (HeLa cells; read-out: NaD1 IC50, growth inhibition, HeLa cells): > 10000 nM | entry of 10 kDa FITC-dextran (23 Å) into NaD1-treated hyphae (Fov hyphae [6]; even at very high concentrations of NaD1): excluded | entry of 4 kDa FITC-dextran (14 Å) into NaD1-treated hyphae (Fov hyphae [6]; same NaD1 concentration that led to SYTOX green uptake): entered hyphae | resistance to fungal infection relative to non-transgenic lines [7]: more resistant to fungal infection than the non-transgenic lines | toxicity with Fusarium graminearum (Fusarium graminearum [8]; 0.24 μM NaD1 in the absence of fungicide): very low | inhibition of fungal growth (Fusarium graminearum [8]; 0.5 μM defensin (alone)): about 13% | effect on growth (Escherichia coli; Gram-negative bacterial strain tested: Escherichia coli): no effect | IC50 (Escherichia coli; growth inhibition, Escherichia coli): > 10000 nM | mortality [9]: approximately half the mortality of the non-transgenic plants | average lesion size versus non-transgenic plants (Leptosphaeria maculans [10]; 10, 14 and 17 days after inoculation): significantly smaller | disease scores versus non-transgenic RI64 (Leptosphaeria maculans [10]; Days 10, 14 and 17): significantly lower disease scores | IC50 (Aspergillus nidulans): 800 nM | effect on growth (Candida albicans): no effect | IC50 (Candida albicans; [21]): > 10000 nM | time up to which amount of NaD1 in cytoplasm increased (Fov hyphae [11]; decreased slightly afterwards): 60 min | time at which NaD1 uptake into cytoplasm occurred (Fov hyphae [11]; immunoblotting of cytoplasmic contents): 20 min | permeabilization of hyphae (SYTOX green) (Fov hyphae [12]; 0.1, 2 or 10 μM NaD1 or 10 μM NaD1R&A): permeabilized hyphae | NaD1 concentration up to which Vmax (maximum rate of fluorescence increase) rose linearly; saturable above (Fov hyphae [12]; SYTOX green uptake): 6.25 µM | time after which fluorescence began to plateau (Fov hyphae [12]; SYTOX green uptake over time): 90 min | NaD1 concentration up to which rate of permeabilization increased progressively (Fov hyphae [12]; above this (up to 50 μM) very little difference in kinetics): 3 µM | lag time before permeabilization (Fov hyphae [12]; all NaD1 concentrations, SYTOX green uptake over time): around 20 min | SYTOX green uptake / permeabilization (Fov hyphae [12]; at 0° C. (relative to 4° C.)): reduced even further | SYTOX green uptake / permeabilization (Fov hyphae [12]; at 4° C.): only a small degree of permeabilization | SYTOX green uptake / permeabilization (Fov hyphae [12]; at 10° C. (less than at 25° C.)): substantial uptake of SYTOX® green | SYTOX green uptake (Fov hyphae [12]; lowest concentration, 0.1 μM NaD1): small amount of SYTOX® green uptake | growth of filamentous fungi (filamentous fungi): inhibit growth | synergy with tebuconazole (Io higher than Ee) (Fusarium graminearum [13]): Synergy | protection from pathological effects of Fov infection versus untransformed parent variety (Fov [14]): significantly protected | permeabilization activity among the plant defensins (ATP release) (F. graminearum hyphae [15]; 1 μM defensin): highest permeabilization activity | ATP release (F. graminearum hyphae [15]; 0.125 to 10 μM NaD1): concentration dependant release of ATP | IC50 (Thielaviopsis basicola): 800 nM | CaCl2 concentration for complete inactivation of NaD1 (Fov [16]): < 2 mM | MgCl2 concentration for complete inactivation of NaD1 (Fov [16]): 50 mM | antagonism of Ca2+ relative to Mg2+ (Fov [16]): greater than 20 times | effect on growth (Bacillus cereus; Gram-positive bacterial strain tested: Bacillus cereus): no effect | IC50 (Bacillus cereus; growth inhibition, Bacillus cereus): > 10000 nM | effect on growth (Saccharomyces cerevisiae): no effect | IC50 (Saccharomyces cerevisiae; [21]): > 10000 nM | effect on growth (Staphylococcus aureus; Gram-positive bacterial strain tested: Staphylococcus aureus): no effect | IC50 (Staphylococcus aureus; growth inhibition, Staphylococcus aureus): > 10000 nM | IC50 [17]: 1000 nM | toxicity to cells ([18]; Spodoptera frugiperda Sf-21 insect cells): not toxic | IC50 ([18]; read-out: NaD1 IC50, growth inhibition, Spodoptera frugiperda (Sf21)): > 10000 nM | mortality [19]: 7% | yield versus untransformed Coker control (Verticillium dahliae [20]; transgenic line 35.125.1, seed coat not used): not significantly different | uninfected plants at the end of the trial (Verticillium dahliae [20]; transgenic line expressing NaD1, non-coated seeds): 3.6%
